# From ChEMBL document CHEMBL1201862, “PubChem BioAssay data set” (2004)
#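 Cells were grown in 96-well plates and exposed to each compound for 48 hours at five concentrations; endpoints were interpolated linearly between bracketing concentrations, or set to the highest concentration if not reached. Abbreviation: GI50, concentration required for 50% inhibition of growth.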 Active and inactive are the calls of the source. Rule as the data show it: active = GI50 up to about 1.1 µM and inactive = higher.
# Tests used:
# Assay in all cases: growth of human tumour cells (NCI), 48 h
# SF-268 = test system: SF-268
# RPMI-8226 = test system: RPMI-8226
# UACC-62 = test system: UACC-62
# SW-620 = test system: SW-620
# SK-MEL-2 = test system: SK-MEL-2
# OVCAR-8 = test system: OVCAR-8
# HL-60 = test system: HL-60
# SK-OV-3 = test system: SK-OV-3
# HCC 2998 = test system: HCC 2998
# SF-295 = test system: SF-295
# CAKI-1 = test system: CAKI-1
# PC-3 = test system: PC-3
# NCI-H226 = test system: NCI-H226
# NCI-H460 = test system: NCI-H460
# Malme-3M = test system: Malme-3M
# NCI-H522 = test system: NCI-H522
# HT-29 = test system: HT-29
# M14 = test system: M14
# HOP-62 = test system: HOP-62
# IGROV-1 = test system: IGROV-1
SMILES,GI50 (SF-268),GI50 (RPMI-8226),GI50 (UACC-62),GI50 (SW-620),GI50 (SK-MEL-2),GI50 (OVCAR-8),GI50 (HL-60),GI50 (SK-OV-3),GI50 (HCC 2998),GI50 (SF-295),GI50 (CAKI-1),GI50 (PC-3),GI50 (NCI-H226),GI50 (NCI-H460),GI50 (Malme-3M),GI50 (NCI-H522),GI50 (HT-29),GI50 (M14),GI50 (HOP-62),GI50 (IGROV-1)
Cc1cc(C)c2c(=N)c3ccccc3n(CCCCCCCCn3c4ccccc4c(=N)c4c(C)cc(C)nc43)c2n1,1.74 µM (inactive),0.239 µM (active),1.73 µM (inactive),0.238 µM (active),1.75 µM (inactive),1.59 µM (inactive),0.433 µM (active),1.73 µM (inactive),0.631 µM (active),1.5 µM (inactive),1.7 µM (inactive),1.38 µM (inactive),1.55 µM (inactive),0.184 µM (active),1.74 µM (inactive),1.38 µM (inactive),0.224 µM (active),1.66 µM (inactive),1.23 µM (inactive),1.33 µM (inactive)
CCNC(=O)/C(=C/c1ccc(OC)cc1)c1cc(OC)c(OC)c(OC)c1,13.8 µM (inactive),14 µM (inactive),3.8 µM (inactive),4.52 µM (inactive),7.57 µM (inactive),21.3 µM (inactive),2.96 µM (inactive),6.85 µM (inactive),4.68 µM (inactive),2.98 µM (inactive),6.03 µM (inactive),3.52 µM (inactive),40.7 µM (inactive),5.31 µM (inactive),5.53 µM (inactive),4.92 µM (inactive),3.41 µM (inactive),9.29 µM (inactive),10.9 µM (inactive),19.7 µM (inactive)
CC(=O)OC(Cc1cc(C=C(C(F)(F)F)C(F)(F)F)cc(C)n1)(C(F)(F)F)C(F)(F)F,1.74 µM (inactive),0.656 µM (active),1.68 µM (inactive),1.28 µM (inactive),2.1 µM (inactive),1.04 µM (active),0.124 µM (active),19.5 µM (inactive),5.2 µM (inactive),2.82 µM (inactive),1.77 µM (inactive),1.77 µM (inactive),1.78 µM (inactive),1.99 µM (inactive),2.48 µM (inactive),2.01 µM (inactive),0.55 µM (active),1.57 µM (inactive),1.79 µM (inactive),1.1 µM (active)
